Test results taken from patent US12503475B2 (Centessa Pharmaceuticals (UK) Limited, priority 2020, dated 2025).
Like-named read-outs stand apart in the source and are kept apart here.

Molecular target: T1, human orexin type 2 receptor (hOX2R) (Homo sapiens, UniProt O43614)
T1 construct: expressed in transfected cells
T1 sequence (O43614 1-444): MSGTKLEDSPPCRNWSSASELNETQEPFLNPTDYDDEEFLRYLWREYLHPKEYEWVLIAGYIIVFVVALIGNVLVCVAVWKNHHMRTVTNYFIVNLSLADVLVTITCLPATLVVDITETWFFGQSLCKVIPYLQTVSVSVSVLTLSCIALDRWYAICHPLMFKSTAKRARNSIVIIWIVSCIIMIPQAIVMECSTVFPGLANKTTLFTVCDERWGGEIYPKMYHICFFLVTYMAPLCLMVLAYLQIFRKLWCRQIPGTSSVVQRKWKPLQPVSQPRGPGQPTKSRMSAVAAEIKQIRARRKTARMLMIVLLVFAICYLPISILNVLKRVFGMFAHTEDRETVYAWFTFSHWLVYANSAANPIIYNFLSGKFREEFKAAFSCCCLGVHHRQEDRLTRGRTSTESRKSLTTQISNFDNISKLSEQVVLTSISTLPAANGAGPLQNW
Test: Measurement of orexin type 2 receptor agonist activity (FLIPR calcium fluorescence)
Format: cell-based
Details: for EC50: read-out: hOx2 pEC50 (converted); for Emax: CHO, read-out: hOx2 Emax (%)
Method in brief: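 Agonism was read as fluorescence in cells stably expressing human OX2R. E. is the response at 10 μM relative to orexin A as full agonist (100%).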

[1] = CHO cells expressing hOX2R, FLIPR calcium fluorescence

SMILES | EC50 [1] [nM] | Emax [1] [%] | Emax [%]
CS(=O)(=O)NC1C(Cc2cccc(-c3ccccc3)c2)N(C(=O)N2CC(F)C2)CC12CC2 (racemic) [Compound 11, N-(6-([1,1′-biphenyl]-3-ylmethyl)-5-(3-fluoroazetidine-1-carbonyl)-5-azaspiro[2.4]heptan-7-yl)methanesulfonamide] | 10 to 100 | 90 to 100 | –
CN(C1CC1)S(=O)(=O)N[C@@H]1[C@H](Cc2cccc(-c3ccccc3)c2)N(C(=O)[C@H]2CCO2)CC12CC2 [Compound 97] | 10 to 100 | 80 to 90 | –
C[C@H](F)CNC(=O)N1CC2(CC2)[C@H](NS(=O)(=O)CF)[C@@H]1Cc1cccc(-c2ccccc2)c1F [Compound 205] | 1 to 10 | 90 to 100 | –
COC(=O)N1CCC2(CC2)C(NS(C)(=O)=O)C1Cc1cccc(-c2ccccc2)c1 (racemic) [Compound 14, methyl 5-([1,1′-biphenyl]-3-ylmethyl)-4-(methylsulfonamido)-6-azaspiro[2.5]octane-6-carboxylate] | > 1000 | 90 to 100 | –
COc1c(C[C@H]2[C@@H](NS(C)(=O)=O)C3(CC3)CN2C(=O)NCC(F)(F)F)cccc1-c1ccccc1 [Compound 343, (6S,7S)-6-((2-methoxy-[1,1′-biphenyl]-3-yl)methyl)-7-(methylsulfonamido)-N-(2,2,2-trifluoroethyl)-5-azaspiro[2.4]heptane-5-carboxamide] | 10 to 100 | 70 to 80 | –
C[C@@H](NC(=O)N1CC2(CC2)[C@H](NS(=O)(=O)CF)[C@@H]1Cc1cccc(-c2ccccc2)c1F)C(F)(F)F [Compound 209, (6S,7S)-6-((2-fluoro-[1,1′-biphenyl]-3-yl)methyl)-7-((fluoromethyl)sulfonamido)-N-((R)-1,1,1-trifluoropropan-2-yl)-5-azaspiro[2.4]heptane-5-carboxamide] | 0.0794 to 1 | 90 to 100 | –
CC(F)(F)C(=O)N1CC2(CC2)C(NS(C)(=O)=O)C1Cc1cccc(-c2ccccc2)c1 (racemic) [Compound 9, N-(6-([1,1′-biphenyl]-3-ylmethyl)-5-(2,2-difluoropropanoyl)-5-azaspiro[2.4]heptan-7-yl)methanesulfonamide] | 100 to 1000 | 40 to 50 | –
CS(=O)(=O)NC1C(Cc2cccc(-c3ccccc3)c2)N(C(=O)C2CC(F)(F)C2)CC12CC2 (racemic) [Compound 12, N-(6-([1,1-biphenyl]-3-ylmethyl)-5-(3,3-difluorocyclobutane-1-carbonyl)-5-azaspiro[2.4]heptan-7-yl)methanesulfonamide] | 100 to 1000 | 80 to 90 | –
N#CC1(C(=O)N2CC3(CC3)[C@H](NS(=O)(=O)C(F)F)[C@@H]2Cc2cccc(-c3cc(F)cc(F)c3)c2F)CCC1 [Compound 381, N-((6S,7S)-5-(1-cyanocyclobutane-1-carbonyl)-6-((2,3′,5′-trifluoro-[1,1′-biphenyl]-3-yl)methyl)-5-azaspiro[2.4]heptan-7-yl)-1,1-difluoromethanesulfonamide] | 1 to 10 | 90 to 100 | –
COC[C@H](F)C(=O)N1CC2(CC2)[C@H](NS(=O)(=O)CF)[C@@H]1Cc1cccc(-c2ccccc2)c1F [Compound 224, 1-fluoro-N-((6S,7S)-5-((S)-2-fluoro-3-methoxypropanoyl)-6-((2-fluoro-[1,1′-biphenyl]-3-yl)methyl)-5-azaspiro[2.4]heptan-7-yl)methanesulfonamide] | 1 to 10 | 90 to 100 | –
C[C@]1(C(=O)N2CC3(CC3)[C@H](NS(=O)(=O)CF)[C@@H]2Cc2cccc(-c3ccccc3)c2F)CCO1 [Compound 202, 1-fluoro-N-((6S,7S)-6-((2-fluoro-[1,1′-biphenyl]-3-yl)methyl)-5-((R)-2-methyloxetane-2-carbonyl)-5-azaspiro[2.4]heptan-7-yl)methanesulfonamide] | 1 to 10 | 90 to 100 | –
COC1(C(=O)N2CC3(CC3)[C@H](NS(=O)(=O)CF)[C@@H]2Cc2cccc(-c3ccccc3)c2F)CC1 [Compound 180, 1-fluoro-N-((6S,7S)-6-((2-fluoro-[1,1′-biphenyl]-3-yl)methyl)-5-(1-methoxycyclopropane-1-carbonyl)-5-azaspiro[2.4]heptan-7-yl)methanesulfonamide] | 1 to 10 | 90 to 100 | –
CCNC(=O)N1CC2(CC2)C(NS(=O)(=O)CF)C1Cc1cccc(-c2ccccc2)c1F (racemic) [Compound 109, N-ethyl-6-((2-fluoro-[1,1′-biphenyl]-3-yl)methyl)-7-((fluoromethyl)sulfonamido)-5-azaspiro[2.4]heptane-5-carboxamide] | 0.0794 to 1 | 90 to 100 | –
CC(C)(O)C(=O)N1CC2(CC2)[C@H](NS(=O)(=O)CF)[C@@H]1Cc1cccc(-c2ccccc2)c1F [Compound 134, 1-fluoro-N-((6S,7S)-6-((2-fluoro-[1,1′-biphenyl]-3-yl)methyl)-5-(2-hydroxy-2-methylpropanoyl)-5-azaspiro[2.4]heptan-7-yl)methanesulfonamide] | 1 to 10 | 90 to 100 | –
O=C(NCC(F)(F)F)N1CC2(CC2)[C@H](NS(=O)(=O)C(F)F)[C@@H]1Cc1cc(F)cc(-c2ccccc2)c1F [Compound 383, (6S,7S)-6-((2,5-difluoro-[1,1′-biphenyl]-3-yl)methyl)-7-((difluoromethyl)sulfonamido)-N-(2,2,2-trifluoroethyl)-5-azaspiro[2.4]heptane-5-carboxamide] | 1 to 10 | 90 to 100 | –
O=C([C@H](O)CF)N1CC2(CC2)[C@H](NS(=O)(=O)C(F)F)[C@@H]1Cc1cc(F)cc(-c2cc(F)cc(F)c2)c1F [Compound 221, 1,1-difluoro-N-((6S,7S)-5-((S)-3-fluoro-2-hydroxypropanoyl)-6-((2,3′,5,5′-tetrafluoro-[1,1′-biphenyl]-3-yl)methyl)-5-azaspiro[2.4]heptan-7-yl)methanesulfonamide] | 1 to 10 | – | 90 to 100
CS(=O)(=O)NC1C(Cc2cccc(-c3cccc(F)c3)c2)N(C(=O)C2(O)CCC2)CC12CC2 (racemic) [Compound 51, N-(6-((3′-fluoro-[1,1′-biphenyl]-3-yl)methyl)-5-(1-hydroxycyclobutane-1-carbonyl)-5-zaspiro[2.4]heptan-7-yl)methanesulfonamide] | 1 to 10 | 90 to 100 | –

Further lines, with some results ahead:

EC50 [1] [nM] | Emax [1] [%] | SMILES | Emax [%]
10 to 100 | 90 to 100 | [2H]c1ccc(-c2cc(F)cc(C[C@H]3[C@@H](NS(C)(=O)=O)C4(CC4)CN3C(=O)[C@H]3CCO3)c2F)cc1 [Compound 359] | –
> 1000 | 90 to 100 | CS(=O)(=O)N[C@H]1[C@@H](Cc2cccc(-c3ccccc3)c2F)N(C(=O)[C@@H]2CCO2)CC12CC2 [Compound 19, N-((6R,7R)-6-((2-fluoro-[1,1′-biphenyl]-3-yl)methyl)-5-((S)-oxetane-2-carbonyl)-5-azaspiro[2.4]heptan-7-yl)methanesulfonamide] | –
1 to 10 | 90 to 100 | CS(=O)(=O)N[C@@H]1[C@H](Cc2cccc(-c3ccccc3)c2F)N(C(=O)[C@H]2CCO2)CC12CC2 [Compound 21, N-((6S,7S)-6-((2-fluoro-[1,1′-biphenyl]-3-yl)methyl)-5-((R)-oxetane-2-carbonyl)-5-azaspiro[2.4]heptan-7-yl)methanesulfonamide] | –
1 to 10 | 90 to 100 | CNS(=O)(=O)N[C@@H]1[C@H](Cc2cccc(-c3ccccc3)c2F)N(C(=O)[C@H]2CCO2)CC12CC2 [Compound 65, N-((6S,7S)-6-((2-fluoro-[1,1′-biphenyl]-3-yl)methyl)-5-((R)-oxetane-2-carbonyl)-5-azaspiro[2.4]heptan-7-yl)-N-methylsulfuric diamide] | –
1 to 10 | 90 to 100 | C[C@H](CF)NC(=O)N1CC2(CC2)[C@H](NS(=O)(=O)C(F)F)[C@@H]1Cc1cc(F)cc(-c2ccccc2)c1F [Compound 388, (6S,7S)-6-((2,5-difluoro-[1,1′-biphenyl]-3-yl)methyl)-7-((difluoromethyl)sulfonamido)-N-((R)-1-fluoropropan-2-yl)-5-azaspiro[2.4]heptane-5-carboxamide] | –
10 to 100 | 90 to 100 | O=C([C@H]1CCO1)N1CC2(CC2)[C@H](NS(=O)(=O)/C=C/F)[C@@H]1Cc1cccc(-c2ccccc2)c1F [Compound 204, (E)-2-fluoro-N-((6S,7S)-6-((2-fluoro-[1,1′-biphenyl]-3-yl)methyl)-5-((R)-oxetane-2-carbonyl)-5-azaspiro[2.4]heptan-7-yl)ethene-1-sulfonamide] | –
0.0794 to 1 | 90 to 100 | CS(=O)(=O)N[C@@H]1[C@H](Cc2cc(F)cc(-c3cccc(F)c3)c2F)N(C(=O)[C@H]2CCO2)CC12CC2 [Compound 122, N-((6S,7S)-5-((R)-oxetane-2-carbonyl)-6-((2,3′,5-trifluoro-[1,1′-biphenyl]-3-yl)methyl)-5-azaspiro[2.4]heptan-7-yl)methanesulfonamide] | –
1 to 10 | 90 to 100 | C[C@H](F)S(=O)(=O)N[C@@H]1[C@H](Cc2cccc(-c3ccccc3)c2F)N(C(=O)[C@H]2CCO2)CC12CC2 [Compound 194, (R)-1-fluoro-N-((6S,7S)-6-((2-fluoro-[1,1′-biphenyl]-3-yl)methyl)-5-((R)-oxetane-2-carbonyl)-5-azaspiro[2.4]heptan-7-yl)ethane-1-sulfonamide] | –
